Measured values reported in patent EP0933027A1, “Methods and compositions for protecting animals and humans against attack and infestation by arthropod and helminth parasites” (American Cyanamid Company, priority 1998, dated 1999).
Read-outs that look alike come from different tables or passages of the source.

What was measured:
[1] = tested on: Dermacentor variabilis; experiment: Contact activity against larval American dog tick (coated vial)
Experimental: This test is designed to evaluate the contact activity of test compounds against the American dog tick. Test compounds are dissolved in 100% acetone to 1000, 300, 100, 10, 1 and 0.1 ppm. 100 µL of each of these dilutions is added to the bottom of a 20 mL glass scintillation vial with a pipettor. The vial is allowed to dry under a fume hood for 15 minutes. The vial is then turned in its side, and 250 µL of each dilution is applied to the sides of the vial. The vial is placed on a rolling machine and allowed to roll under the hood, coating the sides of the vial, until the acetone completely evaporates. The bottom of the vial measures 4.909 cm^2 and the sides measure 4.5 cm high x 8.8 cm around, so that the total coated area of the scintillation vial measures 44.51 cm^2. The amount of test compound applied by each dilution equals 7.86, 2.36, 0.79, 0.079, 0.0079 and 0.00079 µg/cm^2, respectively. Unfed larval dog ticks are counted into the scintillation vials with a slightly damp paintbrush. Ten ticks are placed in each vial. These tests are done in replicates of two or three so that there are 20 to 30 ticks per rate/compound. Mortality readings are taken 4 and 24 hours after placing the ticks in the vials. To read the test, the vial is placed under a magnifying glass and tapped gently. […] Percent mortality is then calculated for each treatment.

[2] = tested on: Musca domestica; experiment: Coated vial test against adult house fly
Experimental: This test is designed to evaluate the activity of test compounds against the house fly. Test compounds are dissolved in 100% acetone to 1000, 300, 100, 10 and 1 ppm. 100 µL of each of these dilutions is added to the bottom of a 20 mL glass scintillation vial with a pipettor. The vial is allowed to dry under a fume hood for 15 minutes. The vial is then turned on its side, and 250 µL of each dilution is applied to the sides of the vial. The vial is placed on a rolling machine and allowed to roll under the hood, coating the sides of the vial, until the acetone completely evaporates. The bottom of the vial measures 4.909 cm^2 and the sides measure 4.5 cm high x 8.8 cm around, so that the total coated area of the scintillation vial measures 44.51 cm^2. The amount of test compound applied by each dilution equals 7.86, 2.36, 0.79, 0.079, and 0.0079 µg/cm^2, respectively. Included in all tests are two to three replications of untreated vials. Adult house flies which are five to seven days old are chilled in a freezer for five minutes to immobilize, and are placed on a sorting platform which provides a steady stream of CO2 to keep the flies immobile. Five flies are counted into each scintillation vial with forceps. The top of the vial is plugged with a wad of sheet cotton sufficient to contain the flies. These tests are done in replicates of two to four so that there are 10 to 20 flies per rate/compound. Mortality readings are taken 1 and 4 hours after placing the flies in the vials. Flies which are unable to stand when disturbed are considered dead. Percent mortality is then calculated for each treatment.

[3] = dose 0.079 µg/cm^2, 4 hours, read-out: 4 Hour % Mortality
[4] = dose 0.790 µg/cm^2, 4 hours, read-out: 4 Hour % Mortality
[5] = dose 2.360 µg/cm^2, 4 hours, read-out: 4 Hour % Mortality

CCOc1ccc(C(/C(F)=C/Cc2ccc(F)c(Oc3ccccc3)c2)C2CC2)cc1 (centres unmarked) [Compound 10, 1-[1-(p-Ethoxyphenyl)-2-fluoro-4-(4-fluoro-3-phenoxyphenyl)-2-butenyl]cyclopropane, (Z)-]
mortality at 0.079 µg/cm2 [1, 3]: 100% | mortality at 0.079 µg/cm2 ([1]; dose 0.079 µg/cm^2, 24 hours, read-out: 24 Hour % Mortality): 100% | mortality at 0.79 µg/cm2 [1, 4]: 100% | mortality at 0.79 µg/cm2 ([1]; dose 0.790 µg/cm^2, 24 hours, read-out: 24 Hour % Mortality): 100% | mortality at 2.36 µg/cm2 [1, 5]: 100% | mortality at 2.36 µg/cm2 ([1]; dose 2.360 µg/cm^2, 24 hours, read-out: 24 Hour % Mortality): 100% | mortality at 7.86 µg/cm2 ([1]; dose 7.860 µg/cm^2, 4 hours, read-out: 4 Hour % Mortality): 100% | mortality at 7.86 µg/cm2 ([1]; dose 7.860 µg/cm^2, 24 hours, read-out: 24 Hour % Mortality): 100% | mortality at 0.079 µg/cm2 ([2]; dose 0.079 µg/cm^2, 1 hour, read-out: 1 Hour % Mortality): 20% | mortality at 0.079 µg/cm2 [2, 3]: 60% | mortality at 0.79 µg/cm2 ([2]; dose 0.790 µg/cm^2, 1 hour, read-out: 1 Hour % Mortality): 20% | mortality at 0.79 µg/cm2 [2, 4]: 75% | mortality at 2.36 µg/cm2 ([2]; dose 2.360 µg/cm^2, 1 hour, read-out: 1 Hour % Mortality): 40% | mortality at 2.36 µg/cm2 [2, 5]: 100%
